In patent US10800791B2, “Triazole ACC inhibitors and uses thereof” (Gilead Apollo, LLC, priority 2015, dated 2020) one finds IC90, IC50 and MIC data, which are given here for two compounds.

The term IC50 denotes the point on the concentration scale where inhibition reaches its midpoint. High values mean weaker potency, low ones greater potency. As usually defined, the MIC is the least concentration at which growth counts as inhibited.

≈ marks a conversion by molar mass, not a printed value. Where two headings read alike, the source gives them in different places.

One test has as its system Rhizoctonia solani (Rs). The test can be described thus: Growth inhibition assay of fungal pathogens, Rs. The test is classed as cell-based. As to conditions: 48 h, mycelial plugs, read-out: Concentration at 90% Inhibition Rs.
The next test deals with human (hACC2) (Homo sapiens, UniProt O00763). The test can be described thus: In vitro ACC inhibition assay (ADP-Glo), hACC2. In kind it is biochemical. Conditions: 5 nM ACC2, 20 μM ATP, 20 μM acetyl-CoA. The procedure:
The detailed procedure is as follows. […] 10 μL ADP glo reagent was added. […] 20 μL kinase detection reagent was added.

Test [1] concerns Phytophthora capsici (Pc). The test can be described thus: Growth inhibition assay of fungal pathogens, Pc. The test is classed as cell-based. As to conditions: 48 h, read-out: Concentration at 90% Inhibition Pc. An outline of the steps: (§1)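 Pathogen growth in 17% V8 broth is measured by OD600 at 24 and 48 hours, after blank subtraction, in the presence of compound at 50, 10 and 2 ppm or 2, 0.4 and 0.08 ppm. Inhibition in percent comes from 48-hour readings against the DMSO control.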

A further test deals with Diplodia maydis (Dm). Kind of test: Growth inhibition assay of fungal pathogens, Dm. The test is classed as cell-based. As to conditions: Stenocarpella maydis, 48 h, Diplodia maydis, read-out: Concentration at 90% Inhibition Dm. Put shortly: as §1
Another test has as its system Botrtyis cinerea (Bc). The test can be described thus: Growth inhibition assay of fungal pathogens, Bc. As to conditions: 48 h, Botrtyis cinerea, read-out: Concentration at 90% Inhibition Bc. In kind it is cell-based. Put shortly: as §1
The next test relates to C. albicans. The test can be described thus: Antifungal Activity Assay (broth microtiter MIC), C. albicans. The test is classed as cell-based, Candida albicans. Conditions: Candida albicans, ATCC90028, 48 h, ATCC 90028, 3 replicates, MIC recorded at 48 h, read-out: MIC, C. albicans ATCC 90028. Put shortly:
(§2)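 Broth microdilution per CLSI M27-A3 in RPMI 1640+MOPS, inoculum 2.5×10^3 CFU/mL final from overnight Sabouraud dextrose agar cultures at 35° C. Compounds diluted from DMSO stock to 128 μg/mL in water. MIC read visually versus growth control at 48 h.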

Test [2] relates to Fusarium virguliforme (Fv). The test can be described thus: Growth inhibition assay of fungal pathogens, Fv. In kind it is cell-based. Conditions: 48 h, read-out: Concentration at 90% Inhibition Fv. Put shortly: as §1
In another test the test system is C. parapsilosis. The test can be described thus: Antifungal Activity Assay (broth microtiter MIC), C. parapsilosis. In kind it is cell-based, Candida parapsilosis. As to conditions: Lodderomyces parapsilosis, ATCC22019, 48 h, ATCC 22019, 3 replicates, MIC recorded at 48 h, read-out: MIC, C. parapsilosis ATCC 22019. An outline of the steps:
as §2

The test system of the next test is C. krusei. Kind of test: Antifungal Activity Assay (broth microtiter MIC), C. krusei. In kind it is cell-based, Candida krusei. Conditions: Pichia kudriavzevii, ATCC6258, 48 h, ATCC 6258, 3 replicates, MIC recorded at 48 h, read-out: MIC, C. krusei ATCC 6258. Put shortly:
as §2

[3] abbreviates: growth inhibition at 48 hours vs 2% DMSO control.
The mark [4] stands for this setting: growth inhibition vs 2% DMSO control at 48 hours.

Sequence of human (hACC2) (O00763 whole entry): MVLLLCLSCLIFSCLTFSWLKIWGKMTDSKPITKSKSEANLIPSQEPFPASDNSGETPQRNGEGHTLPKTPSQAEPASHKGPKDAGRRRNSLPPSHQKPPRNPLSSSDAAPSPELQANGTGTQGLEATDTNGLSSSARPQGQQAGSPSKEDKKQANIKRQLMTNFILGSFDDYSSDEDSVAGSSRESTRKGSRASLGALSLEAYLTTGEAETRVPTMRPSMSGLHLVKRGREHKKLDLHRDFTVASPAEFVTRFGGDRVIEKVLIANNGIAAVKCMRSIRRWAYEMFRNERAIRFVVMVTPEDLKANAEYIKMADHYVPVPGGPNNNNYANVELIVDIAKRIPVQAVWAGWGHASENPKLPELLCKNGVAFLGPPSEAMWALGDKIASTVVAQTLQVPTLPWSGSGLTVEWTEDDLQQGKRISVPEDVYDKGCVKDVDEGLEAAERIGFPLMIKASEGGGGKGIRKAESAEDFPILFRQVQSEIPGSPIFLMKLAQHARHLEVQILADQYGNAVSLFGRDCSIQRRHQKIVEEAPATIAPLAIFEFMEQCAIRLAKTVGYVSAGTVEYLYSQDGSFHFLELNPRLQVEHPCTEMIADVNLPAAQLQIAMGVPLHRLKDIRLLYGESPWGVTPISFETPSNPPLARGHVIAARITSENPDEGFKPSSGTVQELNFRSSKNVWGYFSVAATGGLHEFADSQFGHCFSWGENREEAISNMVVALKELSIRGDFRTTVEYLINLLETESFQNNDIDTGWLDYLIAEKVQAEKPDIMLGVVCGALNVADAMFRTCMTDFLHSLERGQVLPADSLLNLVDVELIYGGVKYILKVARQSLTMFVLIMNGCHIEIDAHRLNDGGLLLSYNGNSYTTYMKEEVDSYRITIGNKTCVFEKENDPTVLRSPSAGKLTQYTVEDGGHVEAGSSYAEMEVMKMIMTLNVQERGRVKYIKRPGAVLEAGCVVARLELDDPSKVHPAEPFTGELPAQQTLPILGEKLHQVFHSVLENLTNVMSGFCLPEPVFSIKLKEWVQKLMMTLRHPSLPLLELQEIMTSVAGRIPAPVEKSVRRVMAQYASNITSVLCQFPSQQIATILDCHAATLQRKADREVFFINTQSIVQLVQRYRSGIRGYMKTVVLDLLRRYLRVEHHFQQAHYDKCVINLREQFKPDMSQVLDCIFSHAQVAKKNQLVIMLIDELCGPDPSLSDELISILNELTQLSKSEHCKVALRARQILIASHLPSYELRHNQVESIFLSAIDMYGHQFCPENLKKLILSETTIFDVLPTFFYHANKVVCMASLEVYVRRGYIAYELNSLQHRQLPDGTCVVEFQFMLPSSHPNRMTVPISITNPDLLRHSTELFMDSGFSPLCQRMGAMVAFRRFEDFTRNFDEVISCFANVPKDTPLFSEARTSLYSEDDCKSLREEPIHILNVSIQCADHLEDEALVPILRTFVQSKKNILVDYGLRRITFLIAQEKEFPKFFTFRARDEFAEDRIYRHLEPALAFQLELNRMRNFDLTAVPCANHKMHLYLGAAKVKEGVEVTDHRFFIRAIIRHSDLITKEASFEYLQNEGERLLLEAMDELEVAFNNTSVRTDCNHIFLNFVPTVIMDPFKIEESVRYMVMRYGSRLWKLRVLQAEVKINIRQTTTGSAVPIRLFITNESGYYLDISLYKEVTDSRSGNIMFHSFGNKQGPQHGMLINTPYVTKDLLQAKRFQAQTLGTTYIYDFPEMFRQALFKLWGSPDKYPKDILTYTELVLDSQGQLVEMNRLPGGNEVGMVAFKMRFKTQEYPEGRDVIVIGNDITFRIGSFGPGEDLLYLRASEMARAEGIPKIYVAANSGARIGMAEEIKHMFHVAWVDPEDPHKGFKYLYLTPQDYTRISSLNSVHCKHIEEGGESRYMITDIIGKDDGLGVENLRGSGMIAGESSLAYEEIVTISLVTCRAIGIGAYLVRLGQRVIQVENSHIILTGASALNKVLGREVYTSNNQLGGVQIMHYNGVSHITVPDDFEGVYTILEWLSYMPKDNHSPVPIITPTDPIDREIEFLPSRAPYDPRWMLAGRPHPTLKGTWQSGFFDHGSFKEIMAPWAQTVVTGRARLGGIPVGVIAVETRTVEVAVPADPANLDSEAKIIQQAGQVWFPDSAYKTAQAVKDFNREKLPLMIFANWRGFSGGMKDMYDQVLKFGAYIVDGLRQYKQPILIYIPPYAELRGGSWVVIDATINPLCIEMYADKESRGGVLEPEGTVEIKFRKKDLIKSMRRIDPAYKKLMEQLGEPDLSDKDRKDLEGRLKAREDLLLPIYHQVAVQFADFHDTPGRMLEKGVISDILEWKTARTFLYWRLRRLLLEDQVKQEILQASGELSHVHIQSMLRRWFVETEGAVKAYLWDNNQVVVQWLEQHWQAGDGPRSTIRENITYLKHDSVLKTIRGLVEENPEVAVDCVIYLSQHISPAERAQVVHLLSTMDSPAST

`COc1ccc(F)cc1[C@H](Cn1c(=O)n(C(C)(C)C(=O)N2CCCC2)c(=O)c2c(C)c(-n3nccn3)sc21)OCC(C)C` [Compound I-12, (R)-1-(2-(5-fluoro-2-methoxyphenyl)-2-isobutoxyethyl)-5-methyl-3-(2-methyl-1-oxo-1-(pyrrolidin-1-yl)propan-2-yl)-6-(2H-1,2,3-triazol-2-yl)thieno[2,3-d]pyrimidine-2,4(1H,3H)-dione]: the IC90 in the test with Rhizoctonia solani (Rs) (setting [3]) was 0.08 µg/mL (≈ 0.131 µM); with Rhizoctonia solani (Rs) (setting [4]) it was 0.08 µg/mL (≈ 0.131 µM); in [1] (setting [3]) it was over 50 µg/mL; in test [1] (setting [4]), over 50 µg/mL; with Diplodia maydis (Dm) (setting [3]), 0.08 µg/mL (≈ 0.131 µM); in the test on Diplodia maydis (Dm) (setting [4]), 0.08 µg/mL (≈ 0.131 µM). For the same compound, the IC90 (in the test with Botrtyis cinerea (Bc) (setting [3]); in the test on Botrtyis cinerea (Bc) (setting [4]); in [2] (setting [3]); in [2] (setting [4])) was 0.4 µg/mL (≈ 0.653 µM) each time. The concentration for half-maximal inhibition (IC50) at human (hACC2) (Table 2a) fell in the range of 10 to 40 nM; on human (hACC2) (Table 2b, additional results), 10 to 40 nM. Also, the MIC in the test on C. albicans (Table 3a) was in the range of 1.1 to 2 µg/mL (≈ 1.8 to 3.26 µM); in the test with C. albicans (Table 3b (additional results)) it was 0.25 to 1 µg/mL (≈ 0.408 to 1.63 µM); in the test on C. parapsilosis (Table 3a), 2.1 to 4 µg/mL (≈ 3.43 to 6.53 µM); with C. parapsilosis (Table 3b (additional results)) it was 1.01 to 2 µg/mL (≈ 1.65 to 3.26 µM); with C. krusei (Table 3a), 0.25 to 1 µg/mL (≈ 0.408 to 1.63 µM); with C. krusei (Table 3b (additional results)) it was 0.25 to 1 µg/mL (≈ 0.408 to 1.63 µM).
In the case of `COc1ccccc1[C@H](Cn1c(=O)n(C(C)(C)C(N)=O)c(=O)c2c(C)c(-n3nccn3)sc21)OC1CCOCC1` [Compound I-14, (R)-2-(1-(2-(2-methoxyphenyl)-2-((tetrahydro-2H-pyran-4-yl)oxy)ethyl)-5-methyl-2,4-dioxo-6-(2H-1,2,3-triazol-2-yl)-1,4-dihydrothieno[2,3-d]pyrimidin-3(2H)-yl)-2-methylpropanamide], the IC90 in the test with Rhizoctonia solani (Rs) (setting [3]) is 10 µg/mL (≈ 17.6 µM); in the test on Rhizoctonia solani (Rs) (setting [4]) it was over 50 µg/mL; in test [1] (setting [3]) it was over 50 µg/mL; in test [1] (setting [4]) it was over 50 µg/mL; with Diplodia maydis (Dm) (setting [3]) it was 10 µg/mL (≈ 17.6 µM); with Diplodia maydis (Dm) (setting [4]), over 50 µg/mL. The IC90 in the test on Botrtyis cinerea (Bc) (setting [3]) is 2 µg/mL (≈ 3.52 µM); in the test on Botrtyis cinerea (Bc) (setting [4]), 2 µg/mL (≈ 3.52 µM); in [2] (setting [3]) it was 10 µg/mL (≈ 17.6 µM); in test [2] (setting [4]), over 50 µg/mL. Moreover, the IC50 at human (hACC2) (Table 2a) lay within 1 to 5 nM; at human (hACC2) (Table 2b, additional results), 1 to 5 nM. Further, the minimal inhibitory concentration (MIC) is 0.25 to 1 µg/mL (≈ 0.44 to 1.76 µM) in the test with C. albicans (Table 3a); 0.25 to 1 µg/mL (≈ 0.44 to 1.76 µM) in the test with C. albicans (Table 3b (additional results)); 1.1 to 2 µg/mL (≈ 1.93 to 3.52 µM) with C. parapsilosis (Table 3a); 2.01 to 4 µg/mL (≈ 3.53 to 7.03 µM) with C. parapsilosis (Table 3b (additional results)); 0.25 to 1 µg/mL (≈ 0.44 to 1.76 µM) in the test with C. krusei (Table 3a); 1.01 to 2 µg/mL (≈ 1.78 to 3.52 µM) in the test with C. krusei (Table 3b (additional results)).
